Experimental findings from ChEMBL document CHEMBL1123970, “Ab initio molecular electrostatic potentials of perillartine analogues: implications for sweet-taste receptor recognition” (J Med Chem, 1988) are described below.

Each structure is given as a SMILES string.

A short description of this assay: Compound was tasted for its sweet potency, expressed with relative to sucrose.
Regarding `C/C=C(C)/C=N/O`, the Sweetness potency came to 40. With `O/N=C/C1=CCCC1` the figure was 55; with `O/N=C/C1=CC=CCC1`, 90.

For the compound `O/N=C/C1=CCCCC1`, the Sweetness potency is 55.

Consider `O/N=C/C1=CCC=CC1`, for which the Sweetness potency stood at 200. With `COCC1=CCC(/C=N/O)=CC1` the figure was 225.

In turn, `CC1=CCC(/C=N/O)=CC1` displayed a Sweetness potency of 500. With `C/C=C(C)/C(C)=N/O` the figure was 140.
